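Five compound concentrations were applied to cells in 96-well plates for 48 hours; endpoints were derived by simple linear interpolation of the resulting dose-response curve. TGI: concentration producing complete growth inhibition.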
How the values were obtained:
Test in all cases: DTP human tumour cell line panel, 48 h
786-0 renal = tested on: 786-0 renal
A498 renal = tested on: A498 renal
A549 NSCLC = tested on: A549 NSCLC
ACHN renal = tested on: ACHN renal
CAKI-1 renal = tested on: CAKI-1 renal
CCRF-CEM leukemia = tested on: CCRF-CEM leukemia
COLO 205 colon = tested on: COLO 205 colon
DU-145 prostate = tested on: DU-145 prostate
EKVX NSCLC = tested on: EKVX NSCLC
HCC-2998 colon = tested on: HCC-2998 colon
HCT-116 colon = tested on: HCT-116 colon
HCT-15 colon = tested on: HCT-15 colon
HOP-62 NSCLC = tested on: HOP-62 NSCLC
HS 578T breast = tested on: HS 578T breast
HT29 colon = tested on: HT29 colon
IGROV1 ovarian = tested on: IGROV1 ovarian
K-562 leukemia = tested on: K-562 leukemia
KM12 colon = tested on: KM12 colon
LOX IMVI melanoma = tested on: LOX IMVI melanoma
M14 melanoma = tested on: M14 melanoma
MALME-3M melanoma = tested on: MALME-3M melanoma
MCF7 breast = tested on: MCF7 breast
MDA-MB-231 breast = tested on: MDA-MB-231 breast
MDA-MB-435 = tested on: MDA-MB-435
MDA-N = tested on: MDA-N
MOLT-4 leukemia = tested on: MOLT-4 leukemia
NCI-H226 lung = tested on: NCI-H226 lung
NCI-H460 lung = tested on: NCI-H460 lung
NCI-H522 lung = tested on: NCI-H522 lung
NCI/ADR-RES ovarian = tested on: NCI/ADR-RES ovarian
OVCAR-3 ovarian = tested on: OVCAR-3 ovarian
OVCAR-4 ovarian = tested on: OVCAR-4 ovarian
OVCAR-5 ovarian = tested on: OVCAR-5 ovarian
OVCAR-8 ovarian = tested on: OVCAR-8 ovarian
PC-3 prostate = tested on: PC-3 prostate
RXF 393 renal = tested on: RXF 393 renal
SF-268 CNS = tested on: SF-268 CNS
SF-295 CNS = tested on: SF-295 CNS
SF-539 CNS = tested on: SF-539 CNS
SK-MEL-2 melanoma = tested on: SK-MEL-2 melanoma
SK-MEL-28 melanoma = tested on: SK-MEL-28 melanoma
SK-MEL-5 melanoma = tested on: SK-MEL-5 melanoma
SK-OV-3 ovarian = tested on: SK-OV-3 ovarian
SN12C renal = tested on: SN12C renal
SNB-19 CNS = tested on: SNB-19 CNS
SNB-75 CNS = tested on: SNB-75 CNS
SR leukemia = tested on: SR leukemia
SW-620 colon = tested on: SW-620 colon
T-47D breast = tested on: T-47D breast
U251 CNS = tested on: U251 CNS
HL-60(TB) leukemia = tested on: HL-60(TB) leukemia
HOP-92 NSCLC = tested on: HOP-92 NSCLC
NCI-H23 lung = tested on: NCI-H23 lung
RPMI-8226 leukemia = tested on: RPMI-8226 leukemia
UACC-257 melanoma = tested on: UACC-257 melanoma
UACC-62 melanoma = tested on: UACC-62 melanoma
TK-10 renal = tested on: TK-10 renal
UO-31 renal = tested on: UO-31 renal

## O=C(Nc1ccc(Cl)cc1)c1cc2c(cc1Cl)Sc1nccn1S2(=O)=O
786-0 renal
  TGI: > 100 µM
A498 renal
  TGI: > 100 µM
A549 NSCLC
  TGI: > 100 µM
ACHN renal
  TGI: > 100 µM
CAKI-1 renal
  TGI: > 100 µM
CCRF-CEM leukemia
  TGI: > 100 µM
COLO 205 colon
  TGI: > 100 µM
DU-145 prostate
  TGI: > 100 µM
EKVX NSCLC
  TGI: > 100 µM
HCC-2998 colon
  TGI: > 100 µM
HCT-116 colon
  TGI: > 100 µM
HCT-15 colon
  TGI: > 100 µM
HOP-62 NSCLC
  TGI: > 100 µM
HS 578T breast
  TGI: 97.4 µM
HT29 colon
  TGI: > 100 µM
IGROV1 ovarian
  TGI: > 100 µM
K-562 leukemia
  TGI: > 100 µM
KM12 colon
  TGI: > 100 µM
LOX IMVI melanoma
  TGI: > 100 µM
M14 melanoma
  TGI: > 100 µM
MALME-3M melanoma
  TGI: > 100 µM
MCF7 breast
  TGI: > 100 µM
MDA-MB-231 breast
  TGI: > 100 µM
MDA-MB-435
  TGI: > 100 µM
MDA-N
  TGI: > 100 µM
MOLT-4 leukemia
  TGI: > 100 µM
NCI-H226 lung
  TGI: > 100 µM
NCI-H460 lung
  TGI: > 100 µM
NCI-H522 lung
  TGI: > 100 µM
NCI/ADR-RES ovarian
  TGI: > 100 µM
OVCAR-3 ovarian
  TGI: > 100 µM
OVCAR-4 ovarian
  TGI: > 100 µM
OVCAR-5 ovarian
  TGI: > 100 µM
OVCAR-8 ovarian
  TGI: > 100 µM
PC-3 prostate
  TGI: > 100 µM
RXF 393 renal
  TGI: > 100 µM
SF-268 CNS
  TGI: > 100 µM
SF-295 CNS
  TGI: > 100 µM
SF-539 CNS
  TGI: > 100 µM
SK-MEL-2 melanoma
  TGI: > 100 µM
SK-MEL-28 melanoma
  TGI: > 100 µM
SK-MEL-5 melanoma
  TGI: > 100 µM
SK-OV-3 ovarian
  TGI: > 100 µM
SN12C renal
  TGI: > 100 µM
SNB-19 CNS
  TGI: > 100 µM
SNB-75 CNS
  TGI: 25.2 µM
SR leukemia
  TGI: > 100 µM
SW-620 colon
  TGI: > 100 µM
T-47D breast
  TGI: > 100 µM
U251 CNS
  TGI: 39.6 µM

## CCOC(=O)c1c(SCc2ccccc2)nc2c3ccccc3ccn12
786-0 renal
  TGI: > 100 µM
A498 renal
  TGI: > 100 µM
A549 NSCLC
  TGI: > 100 µM
ACHN renal
  TGI: > 100 µM
CAKI-1 renal
  TGI: > 100 µM
CCRF-CEM leukemia
  TGI: > 100 µM
COLO 205 colon
  TGI: > 100 µM
DU-145 prostate
  TGI: > 100 µM
EKVX NSCLC
  TGI: > 100 µM
HCC-2998 colon
  TGI: > 100 µM
HCT-116 colon
  TGI: > 100 µM
HCT-15 colon
  TGI: > 100 µM
HL-60(TB) leukemia
  TGI: > 100 µM
HOP-62 NSCLC
  TGI: > 100 µM
HOP-92 NSCLC
  TGI: 27.5 µM
HS 578T breast
  TGI: 58.3 µM
HT29 colon
  TGI: > 100 µM
IGROV1 ovarian
  TGI: > 100 µM
K-562 leukemia
  TGI: > 100 µM
KM12 colon
  TGI: > 100 µM
LOX IMVI melanoma
  TGI: > 100 µM
M14 melanoma
  TGI: > 100 µM
MALME-3M melanoma
  TGI: > 100 µM
MCF7 breast
  TGI: > 100 µM
MDA-MB-231 breast
  TGI: > 100 µM
MDA-MB-435
  TGI: > 100 µM
MDA-N
  TGI: > 100 µM
MOLT-4 leukemia
  TGI: > 100 µM
NCI-H226 lung
  TGI: > 100 µM
NCI-H23 lung
  TGI: > 100 µM
NCI-H460 lung
  TGI: > 100 µM
NCI-H522 lung
  TGI: > 100 µM
NCI/ADR-RES ovarian
  TGI: > 100 µM
OVCAR-4 ovarian
  TGI: > 100 µM
OVCAR-5 ovarian
  TGI: > 100 µM
OVCAR-8 ovarian
  TGI: > 100 µM
PC-3 prostate
  TGI: > 100 µM
RPMI-8226 leukemia
  TGI: > 100 µM
RXF 393 renal
  TGI: > 100 µM
SF-268 CNS
  TGI: > 100 µM
SF-295 CNS
  TGI: > 100 µM
SF-539 CNS
  TGI: > 100 µM
SK-MEL-2 melanoma
  TGI: > 100 µM
SK-MEL-28 melanoma
  TGI: > 100 µM
SK-MEL-5 melanoma
  TGI: > 100 µM
SK-OV-3 ovarian
  TGI: > 100 µM
SN12C renal
  TGI: > 100 µM
SNB-75 CNS
  TGI: > 100 µM
SR leukemia
  TGI: > 100 µM
SW-620 colon
  TGI: > 100 µM
T-47D breast
  TGI: > 100 µM
U251 CNS
  TGI: > 100 µM
UACC-257 melanoma
  TGI: > 100 µM
UACC-62 melanoma
  TGI: > 100 µM

## CC1=C2C(=O)c3ccccc3C(=O)[C@H]2C[C@@H](N2CCCC2=O)O1
786-0 renal
  TGI: 65.5 µM
A498 renal
  TGI: > 100 µM
A549 NSCLC
  TGI: > 100 µM
ACHN renal
  TGI: > 100 µM
CAKI-1 renal
  TGI: > 100 µM
CCRF-CEM leukemia
  TGI: 81.8 µM
COLO 205 colon
  TGI: > 100 µM
DU-145 prostate
  TGI: 54.7 µM
EKVX NSCLC
  TGI: > 100 µM
HCC-2998 colon
  TGI: > 100 µM
HCT-15 colon
  TGI: > 100 µM
HL-60(TB) leukemia
  TGI: > 100 µM
HOP-62 NSCLC
  TGI: > 100 µM
HOP-92 NSCLC
  TGI: 61.7 µM
HS 578T breast
  TGI: > 100 µM
HT29 colon
  TGI: > 100 µM
IGROV1 ovarian
  TGI: > 100 µM
K-562 leukemia
  TGI: > 100 µM
KM12 colon
  TGI: > 100 µM
LOX IMVI melanoma
  TGI: 37.8 µM
M14 melanoma
  TGI: 34.9 µM
MALME-3M melanoma
  TGI: 31.8 µM
MCF7 breast
  TGI: 29.9 µM
MDA-MB-231 breast
  TGI: > 100 µM
MDA-MB-435
  TGI: 33.1 µM
MDA-N
  TGI: 30 µM
MOLT-4 leukemia
  TGI: > 100 µM
NCI-H23 lung
  TGI: 57.1 µM
NCI-H460 lung
  TGI: > 100 µM
NCI-H522 lung
  TGI: > 100 µM
NCI/ADR-RES ovarian
  TGI: 97 µM
OVCAR-3 ovarian
  TGI: 63.9 µM
OVCAR-4 ovarian
  TGI: 38.2 µM
OVCAR-5 ovarian
  TGI: 42.5 µM
OVCAR-8 ovarian
  TGI: > 100 µM
PC-3 prostate
  TGI: > 100 µM
RPMI-8226 leukemia
  TGI: 49.5 µM
RXF 393 renal
  TGI: 45.3 µM
SF-268 CNS
  TGI: > 100 µM
SF-295 CNS
  TGI: > 100 µM
SF-539 CNS
  TGI: 49.1 µM
SK-MEL-2 melanoma
  TGI: > 100 µM
SK-MEL-28 melanoma
  TGI: > 100 µM
SK-MEL-5 melanoma
  TGI: 32.7 µM
SK-OV-3 ovarian
  TGI: > 100 µM
SN12C renal
  TGI: > 100 µM
SNB-19 CNS
  TGI: > 100 µM
SNB-75 CNS
  TGI: 61 µM
SR leukemia
  TGI: 87.7 µM
SW-620 colon
  TGI: 66.9 µM
T-47D breast
  TGI: 53.5 µM
TK-10 renal
  TGI: > 100 µM
U251 CNS
  TGI: 76.4 µM
UACC-257 melanoma
  TGI: > 100 µM
UACC-62 melanoma
  TGI: > 100 µM
UO-31 renal
  TGI: > 100 µM

Source: PubChem BioAssay (NCI)
